Data published in ChEMBL document CHEMBL4814030, “Optimization of ether and aniline based inhibitors of lactate dehydrogenase” (Bioorg Med Chem Lett, 2021).
Values after ≈ are worked out from the molar mass of the structure shown.

Columns and labels:
[1] = biological target: T1, L-lactate dehydrogenase A chain (Homo sapiens, UniProt P00338); assay: Inhibition of LDHA in human MIA PaCa2 cells assessed as reduction in lactate production incubated for 2 hrs by fluorescence based assay; assay type: cell-based, MIA PaCa-2
[2] = biological target: T1, L-lactate dehydrogenase A chain; assay: Inhibition of recombinant human LDHA using sodium pyruvate as substrate preincubated for 5 mins followed by diaphorase/resazurin addition and measured after 20 mins by fluorescence based assay
[3] = Permeability of compound by PAMPA; assay type: ADME; conditions: read-out: permeability
[4] = Metabolic stability in rat microsomes assessed as half life; assay type: ADME, Microsome
[5] = system: A673; assay: Cytotoxicity against human A673 cells assessed as reduction in cell viability incubated for 48 hrs by cell titer glo assay; assay type: functional, cell-based; conditions: A673, 48 h
[6] = system: MIA PaCa-2; assay: Cytotoxicity against human MIA PaCa-2 cells assessed as reduction in cell viability incubated for 48 hrs by cell titer glo assay; assay type: functional, cell-based; conditions: MIA PaCa-2, 48 h
[7] = biological target: T1, L-lactate dehydrogenase A chain; assay: Binding affinity to LDHA (unknown origin) by SPR analysis
[8] = biological target: T1, L-lactate dehydrogenase A chain; assay: Inhibition of LDHA in human A673 cells assessed as reduction in lactate production incubated for 2 hrs by fluorescence based assay; assay type: cell-based
[9] = Kinetic solubility of compound; assay type: physicochemical; conditions: read-out: Kinetic_solubility

IC50 [1] [µM]	IC50 [2] [nM]	Papp [3] [×10⁻⁶ cm/s]	t1/2 [4] [min]	Kd [7] [nM]	IC50 [8] [nM]	solubility kinetic [9] [µg/mL]	SMILES	IC50 [5] [nM]	IC50 [6] [µM]
0.97	27						NS(=O)(=O)c1ccc(Cc2c(-c3ccc(F)c(Oc4cccc(F)c4)c3)nn(-c3nc(C(=O)O)cs3)c2CC2CC2)cc1F		
> 57	77						NS(=O)(=O)c1ccc(Cc2cn(-c3nc(C(=O)O)cs3)nc2-c2cccc(OCc3cccnc3)c2)cc1		
2.9	5						NS(=O)(=O)c1ccc(Cc2c(-c3ccc(F)c(OCC4CCCO4)c3)nn(-c3nc(C(=O)O)cs3)c2CC2CC2)cc1F (stereo not given)		
3.3	84						NS(=O)(=O)c1ccc(Cc2c(-c3ccc(F)c(OCc4ccc(F)cc4)c3)nn(-c3nc(C(=O)O)cs3)c2CC2CC2)cc1		
1	23	12	> 30	0.001	1100	53.2 (≈ 76.6 µM)	NS(=O)(=O)c1ccc(Cc2c(-c3ccc(F)c(OCc4ccc(C(F)(F)F)o4)c3)nn(-c3nc(C(=O)O)cs3)c2CC2CC2)cc1F	440	2.1
> 57	90						COc1cccc(-c2nn(-c3nc(C(=O)O)cs3)cc2Cc2ccc(S(N)(=O)=O)cc2)c1		
> 57	23						NS(=O)(=O)c1ccc(Cc2cn(-c3nc(C(=O)O)cs3)nc2-c2cccc(OCc3ccccn3)c2)cc1		
11.7	6						CC(C)(C)NC(=O)c1cc(-c2nn(-c3nc(C(=O)O)cs3)c(CC3CC3)c2Cc2ccc(S(N)(=O)=O)c(F)c2)ccc1F		
7.5	39						Cc1ccc(COc2cccc(-c3nn(-c4nc(C(=O)O)cs4)cc3Cc3ccc(S(N)(=O)=O)cc3)c2)cc1		
5.4	21						COc1cccc(COc2cccc(-c3nn(-c4nc(C(=O)O)cs4)cc3Cc3ccc(S(N)(=O)=O)cc3)c2)c1		
2.1	8	5.8	> 30	0.004	1900	> 87	NS(=O)(=O)c1ccc(Cc2c(-c3ccc(F)c(OC4CC4)c3)nn(-c3nc(C(=O)O)cs3)c2CC2CC2)cc1F	1500	5.7
1.7	41						NS(=O)(=O)c1ccc(Cc2c(-c3ccc(F)c(Oc4ccc(F)cc4)c3)nn(-c3nc(C(=O)O)cs3)c2CC2CC2)cc1F		

Further lines, the molecule ahead of its results:

SMILES	IC50 [1] [µM]	IC50 [2] [nM]	Papp [3] [×10⁻⁶ cm/s]	t1/2 [4] [min]	Kd [7] [nM]	IC50 [8] [nM]	solubility kinetic [9] [µg/mL]	IC50 [5] [nM]	IC50 [6] [µM]
NS(=O)(=O)c1ccc(Cc2c(-c3cccc(N4CCC(F)(F)CC4)c3)nn(-c3nc(C(=O)O)cs3)c2CC2CC2)cc1F	8.7	17							
COc1cc(-c2nn(-c3nc(C(=O)O)cs3)c(CC3CC3)c2Cc2ccc(S(N)(=O)=O)cc2)ccc1F	5.7	8							
NS(=O)(=O)c1ccc(Cc2c(-c3cccc(N4CCOCC4)c3)nn(-c3nc(C(=O)O)cs3)c2CC2CC2)cc1F	23.4	27	1.6	> 30	0.44	9400	> 88	20400	18.7
NS(=O)(=O)c1ccc(Cc2c(-c3ccc(F)c(Oc4ccccc4)c3)nn(-c3nc(C(=O)O)cs3)c2CC2CC2)cc1	1.7	34							
NS(=O)(=O)c1ccc(Cc2c(-c3ccc(F)c(OCC4CCOC4)c3)nn(-c3nc(C(=O)O)cs3)c2CC2CC2)cc1F (stereo not given)	3	5							
NS(=O)(=O)c1ccc(Cc2c(-c3ccc(F)c(C(=O)N4CCCC4)c3)nn(-c3nc(C(=O)O)cs3)c2CC2CC2)cc1F	19.9	154	5.7	> 30		16600	> 93	> 50000	6.6
NS(=O)(=O)c1ccc(Cc2c(-c3cccc(OC4CCCC4)c3)nn(-c3nc(C(=O)O)cs3)c2CC2CC2)cc1F	0.71	13							
NS(=O)(=O)c1ccc(Cc2cn(-c3nc(C(=O)O)cs3)nc2-c2cccc(OCc3cccc(F)c3)c2)cc1	6.1	26							
NS(=O)(=O)c1ccc(Cc2c(-c3ccc(F)c(C(=O)NCc4ccccc4)c3)nn(-c3nc(C(=O)O)cs3)c2CC2CC2)cc1F	9.1	8	8.7	14.9		4700	81 (≈ 122 µM)	5100	15.7
NS(=O)(=O)c1ccc(Cc2cn(-c3nc(C(=O)O)cs3)nc2-c2cccc(OCC3CCCC3)c2)cc1	7.7	29							
NS(=O)(=O)c1ccc(Cc2c(-c3cccc(N4CCCC(C(F)(F)F)C4)c3)nn(-c3nc(C(=O)O)cs3)c2CC2CC2)cc1F (stereo not given)	6.9	59							
NS(=O)(=O)c1ccc(Cc2c(-c3cccc(OCc4ccccc4)c3)nn(-c3nc(C(=O)O)cs3)c2CC2CC2)cc1F	0.69	19	1.1	2.8	0.016	590	72.4 (≈ 117 µM)	420	1.4
Cc1ccc(Oc2cc(-c3nn(-c4nc(C(=O)O)cs4)c(CC4CC4)c3Cc3ccc(S(N)(=O)=O)c(F)c3)ccc2F)cc1	0.87	26	13	6.2	1.1	550	24 (≈ 37.7 µM)	550	2.1
NS(=O)(=O)c1ccc(Cc2c(-c3ccc(F)c(N4CCCC4=O)c3)nn(-c3nc(C(=O)O)cs3)c2CC2CC2)cc1F	6	111							
NS(=O)(=O)c1ccc(Cc2c(-c3cccc(Oc4cccc(F)c4)c3)nn(-c3nc(C(=O)O)cs3)c2CC2CC2)cc1	19	1060							
NS(=O)(=O)c1ccc(Cc2c(-c3ccc(F)c(Oc4ccc(C(F)(F)F)cc4)c3)nn(-c3nc(C(=O)O)cs3)c2CC2CC2)cc1F	1.1	71							
CC(C)N1CC2(CN(c3cc(-c4nn(-c5nc(C(=O)O)cs5)c(CC5CC5)c4Cc4ccc(S(N)(=O)=O)c(F)c4)ccc3F)C2)C1	24.1	37							
NS(=O)(=O)c1ccc(Cc2c(-c3cccc(N4CCC(C(F)(F)F)CC4)c3)nn(-c3nc(C(=O)O)cs3)c2CC2CC2)cc1F	2.4	47							
NS(=O)(=O)c1ccc(Cc2cn(-c3nc(C(=O)O)cs3)nc2-c2cccc(Oc3ccccc3)c2)cc1	9.4	17							
NS(=O)(=O)c1ccc(Cc2c(-c3ccc(F)c(OCc4cccc(F)c4)c3)nn(-c3nc(C(=O)O)cs3)c2CC2CC2)cc1F	0.67	22	2.9	< 1	0.91	730	10.7 (≈ 16.3 µM)	550	2.1
NS(=O)(=O)c1ccc(Cc2c(-c3ccc(F)c(OCC4CC4(F)F)c3)nn(-c3nc(C(=O)O)cs3)c2CC2CC2)cc1F (stereo not given)	1.4	5	4.9	> 30	0.008	1100	76.1 (≈ 120 µM)	900	2.4
NS(=O)(=O)c1ccc(Cc2c(-c3ccc(F)c(C(=O)N4CCOCC4)c3)nn(-c3nc(C(=O)O)cs3)c2CC2CC2)cc1F	3.2	22							
NS(=O)(=O)c1ccc(Cc2c(-c3cccc(N4CCC(F)(F)C4)c3)nn(-c3nc(C(=O)O)cs3)c2CC2CC2)cc1F	4.2	15							
NS(=O)(=O)c1ccc(Cc2c(-c3cccc(Nc4ccccc4)c3)nn(-c3nc(C(=O)O)cs3)c2CC2CC2)cc1	6.7	314	4.4	6	1.5	3100	49.3 (≈ 84.2 µM)	34500	21.2
NS(=O)(=O)c1ccc(Cc2c(-c3ccc(F)c(NC(=O)c4ccccc4)c3)nn(-c3nc(C(=O)O)cs3)c2CC2CC2)cc1F	5	7	6.4	> 30		2300	> 98	5300	17.4
NS(=O)(=O)c1ccc(Cc2c(-c3cccc(N4CCCC(F)(F)C4)c3)nn(-c3nc(C(=O)O)cs3)c2CC2CC2)cc1F	8.6	18							
